# Tested on: body odor
# Assay: Neutralization of body odor: specimen on left armpit vs anti-transpirant base suspension on right armpit, worn T-shirt rated by trained persons
# Format: in vivo, human
# Conditions: statement in words on the body odor test; 0.3 wt. % in anti-transpirant base suspension
# Protocol: The following anti-transpirant base suspension was used to determine the synergistic effect with respect to the neutralization of body odor (values in wt. %):
# Each of the following cyclical alcohols of the Formula (I) and/or menthyl compounds of the Formula (II) were added to said composition, wherein the total concentration of alcohol and/or menthyl compound in the suspension is 0.3 wt. % (all values in wt. %, relative to the used anti-transpirant suspension):
# Said suspensions, each with a weight ratio of 15:85, were then placed in aerosol cans with a propellant mixture of propane and n-butane (weight ratio 15:85). Specimens No. 1 to 11 were each applied to the left armpit, the anti-transpirant base suspension to the right armpit. 24 hours after application, the body odor on the worn T-shirt on the left armpit (treated with specimens No. 1 to 11) were compared to the body odor of the right armpit (treated with anti-transpirant base suspension) by trained persons. The following rating scale was used: 0=no difference between specimen No. 1 to 11 and anti-transpirant base suspension; +=body odor reduced compared to anti-transpirant base suspension; ++=body odor no longer discernible on the T-shirt.
row,SMILES,deodorizing effect
1,CC(O)C1CCCCC1 (stereo not drawn) [1-cyclohexylethanol],deodorizing effect
2,CC(CO)CCCC1CCCCC1 (stereo not drawn) [2-methyl-5-cyclohexylpentanol],a deodorizing effect is achieved
3,CC(=O)O[C@@H]1C[C@H](C)CC[C@H]1C(C)C [menthylacetate],deodorizing effect
